How the values were obtained:
Spleen [1] = test: Biodistribution in mouse S180 cells xenografted Kunming mouse spleen at 370 kBq/0.1 mL, iv after 5 mins by gamma counting; format: ADME, organism-based, CCRF S-180; details: in vivo
Mus musculus [2] = test: Biodistribution in mouse S180 cells xenografted Kunming mouse tumor at 370 kBq/0.1 mL, iv after 120 mins by gamma counting; format: ADME, organism-based, Neoplasm, CCRF S-180; details: in vivo, 2 h
Spleen [3] = test: Biodistribution in mouse S180 cells xenografted Kunming mouse spleen at 370 kBq/0.1 mL, iv after 60 mins by gamma counting; format: ADME, organism-based, CCRF S-180; details: in vivo, 1 h
Spleen [4] = test: Biodistribution in mouse S180 cells xenografted Kunming mouse spleen at 370 kBq/0.1 mL, iv after 30 mins by gamma counting; format: ADME, organism-based, CCRF S-180; details: in vivo, 0.5 h
Kidney [5] = test: Biodistribution in mouse S180 cells xenografted Kunming mouse kidney at 370 kBq/0.1 mL, iv after 30 mins by gamma counting; format: ADME, organism-based, CCRF S-180; details: in vivo, 0.5 h
Muscle tissue [6] = test: Biodistribution in mouse S180 cells xenografted Kunming mouse muscle at 370 kBq/0.1 mL, iv after 30 mins by gamma counting; format: ADME, organism-based, CCRF S-180; details: in vivo, 0.5 h
Nucleic Acid [7] = test: Ratio of drug level in tumor to muscle in mouse S180 cells xenografted Kunming mouse at 370 kBq/0.1 mL, iv after 30 mins by gamma counting; format: ADME, organism-based, CCRF S-180; details: in vivo, 0.5 h
Spleen [8] = test: Biodistribution in mouse S180 cells xenografted Kunming mouse spleen at 370 kBq/0.1 mL, iv after 15 mins by gamma counting; format: ADME, organism-based, CCRF S-180; details: in vivo, 0.25 h
Lung = test: Biodistribution in mouse S180 cells xenografted Kunming mouse lung at 370 kBq/0.1 mL, iv after 15 mins by gamma counting; format: ADME, organism-based, CCRF S-180; details: in vivo, 0.25 h
Heart [9] = test: Biodistribution in mouse S180 cells xenografted Kunming mouse heart at 370 kBq/0.1 mL, iv after 30 mins by gamma counting; format: ADME, organism-based, CCRF S-180; details: in vivo, 0.5 h
Kidney [10] = test: Biodistribution in mouse S180 cells xenografted Kunming mouse kidney at 370 kBq/0.1 mL, iv after 5 mins by gamma counting; format: ADME, organism-based, CCRF S-180; details: in vivo
Brain = test: Biodistribution in mouse S180 cells xenografted Kunming mouse brain at 370 kBq/0.1 mL, iv after 120 mins by gamma counting; format: ADME, organism-based, CCRF S-180; details: in vivo, 2 h
Nucleic Acid [11] = test: Ratio of drug level in tumor to muscle in mouse S180 cells xenografted Kunming mouse at 370 kBq/0.1 mL, iv after 60 mins by gamma counting; format: ADME, organism-based, CCRF S-180; details: in vivo, 1 h
Nucleic Acid [12] = test: Ratio of drug level in tumor to brain in mouse S180 cells xenografted Kunming mouse at 370 kBq/0.1 mL, iv after 5 mins by gamma counting; format: ADME, organism-based, CCRF S-180; details: in vivo
Nucleic Acid [13] = test: Ratio of drug level in tumor to brain in mouse S180 cells xenografted Kunming mouse at 370 kBq/0.1 mL, iv after 120 mins by gamma counting; format: ADME, organism-based, CCRF S-180; details: in vivo, 2 h
Heart [14] = test: Biodistribution in mouse S180 cells xenografted Kunming mouse heart at 370 kBq/0.1 mL, iv after 120 mins by gamma counting; format: ADME, organism-based, CCRF S-180; details: in vivo, 2 h
Mus musculus [15] = test: Biodistribution in mouse S180 cells xenografted Kunming mouse tumor at 370 kBq/0.1 mL, iv after 15 mins by gamma counting; format: ADME, organism-based, Neoplasm, CCRF S-180; details: in vivo, 0.25 h
Nucleic Acid [16] = test: Ratio of drug level in tumor to blood in mouse S180 cells xenografted Kunming mouse at 370 kBq/0.1 mL, iv after 15 mins by gamma counting; format: ADME, organism-based, CCRF S-180; details: tumour, 0.25 h
Nucleic Acid [17] = test: Ratio of drug level in tumor to blood in mouse S180 cells xenografted Kunming mouse at 370 kBq/0.1 mL, iv after 5 mins by gamma counting; format: ADME, organism-based, CCRF S-180; details: tumour
Muscle tissue [18] = test: Biodistribution in mouse S180 cells xenografted Kunming mouse muscle at 370 kBq/0.1 mL, iv after 60 mins by gamma counting; format: ADME, organism-based, CCRF S-180; details: in vivo, 1 h
Nucleic Acid [19] = test: Ratio of drug level in tumor to muscle in mouse S180 cells xenografted Kunming mouse at 370 kBq/0.1 mL, iv after 15 mins by gamma counting; format: ADME, organism-based, CCRF S-180; details: in vivo, 0.25 h
CCRF S-180 = test: Cellular uptake in mouse S180 cells after 30 mins; format: ADME, cell-based; details: ccrf s-180, 0.5 h
Mus musculus [20] = test: Biodistribution in mouse S180 cells xenografted Kunming mouse left forelimb of tumor at 3.7 MBq, iv after 30 mins by PET imaging analysis; format: ADME, organism-based, Neoplasm, CCRF S-180; details: in vivo, 0.5 h
Mus musculus [21] = test: Biodistribution in mouse S180 cells xenografted Kunming mouse excretory organ at 3.7 MBq, iv after 30 mins by PET imaging analysis; format: ADME, organism-based, CCRF S-180; details: in vivo, 0.5 h
Mus musculus [22] = test: Biodistribution in mouse S180 cells xenografted Kunming mouse right forelimb of tumor at 3.7 MBq, iv after 30 mins by PET imaging analysis; format: ADME, organism-based, Neoplasm, CCRF S-180; details: in vivo, 0.5 h

Row | Compound | Drug uptake (Spleen [1]) [% ID/g] | Drug uptake (Mus musculus [2]) [% ID/g] | Drug uptake (Spleen [3]) [% ID/g] | Drug uptake (Spleen [4]) [% ID/g] | Drug uptake (Kidney [5]) [% ID/g] | Drug uptake (Muscle tissue [6]) [% ID/g] | Ratio (Nucleic Acid [7]) | Drug uptake (Spleen [8]) [% ID/g] | Drug uptake (Lung) [% ID/g] | Drug uptake (Heart [9]) [% ID/g] | Drug uptake (Kidney [10]) [% ID/g] | Drug uptake (Brain) [% ID/g] | Ratio (Nucleic Acid [11]) | Ratio (Nucleic Acid [12]) | Ratio (Nucleic Acid [13]) | Drug uptake (Heart [14]) [% ID/g] | Drug uptake (Mus musculus [15]) [% ID/g] | Ratio (Nucleic Acid [16]) | Ratio (Nucleic Acid [17]) | Drug uptake (Muscle tissue [18]) [% ID/g] | also measured
1 | Cc1cc(NCCNC(=O)c2ccc([N+](=O)[O-])cc2[18F])n2ncc(C#N)c2n1 | 4.54 | 0.21 | 0.53 | 0.99 | 5.63 | 0.89 | 1.4 | 1.96 | 2.6 | 1.16 | 17.7 | 0.04 | 1.57 | 5.87 | 5.13 | 0.12 | 1.99 | 0.8 | 0.43 | 0.47 | Ratio (Nucleic Acid [19]): 0.96
2 | Cc1cc(NCC[18F])n2ncc(C#N)c2n1 | 4.66 | 2.88 | 2.82 | 3.43 | 3.28 | 3.05 | 1.81 | 3.42 | 3.79 | 4.06 | 7.93 | 1.79 | 1.28 | 0.59 | 1.61 | 2.59 | 4.37 | 0.94 | 0.39 | 2.31 | Drug uptake (CCRF S-180): Active; Drug uptake (Mus musculus [20]): Active; Drug uptake (Mus musculus [21]): Active; Drug uptake (Mus musculus [22]): Not Active; Ratio (Nucleic Acid [19]): 1.14

From ChEMBL document CHEMBL1806489, “Synthesis and biological evaluation of novel F-18 labeled pyrazolo[1,5-a]pyrimidine derivatives: potential PET imaging agents for tumor detection” (Bioorg Med Chem Lett, 2011)
